Data taken from ChEMBL document CHEMBL2034967, “Lipophilic amines as potent inhibitors of N-acylethanolamine-hydrolyzing acid amidase” (Bioorg Med Chem, 2012).
Activity calls are given as the source filed them. No cut-off for these calls is given here.

Legend:
[1] = molecular target: T1, N-acylethanolamine-hydrolyzing acid amidase (Rattus norvegicus) (UniProt Q5KTC7); assay: Inhibition of Wistar/ST rat lung NAAA assessed as residual activity for conversion of [14C]PEA to [14C]palmitic acid at 100 uM after 20 mins relative to control
T1 sequence (whole entry): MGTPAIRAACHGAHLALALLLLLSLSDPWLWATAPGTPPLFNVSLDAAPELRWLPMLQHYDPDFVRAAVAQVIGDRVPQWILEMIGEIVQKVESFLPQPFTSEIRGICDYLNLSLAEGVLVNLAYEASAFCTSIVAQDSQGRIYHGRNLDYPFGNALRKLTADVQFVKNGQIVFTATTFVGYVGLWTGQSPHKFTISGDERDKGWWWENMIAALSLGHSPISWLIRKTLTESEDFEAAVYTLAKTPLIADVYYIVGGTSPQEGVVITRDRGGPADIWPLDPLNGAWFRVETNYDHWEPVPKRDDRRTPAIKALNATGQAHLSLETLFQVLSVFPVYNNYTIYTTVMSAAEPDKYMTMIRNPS

[2] = molecular target: T1, N-acylethanolamine-hydrolyzing acid amidase (Rattus norvegicus); assay: Inhibition of Wistar/ST rat lung NAAA assessed as conversion of [14C]PEA to [14C]palmitic acid at 100 uM after 20 mins
[3] = molecular target: T2, N-acylethanolamine-hydrolyzing acid amidase (Rattus norvegicus, UniProt Q5KTC7); assay: Inhibition of Wistar/ST rat lung NAAA assessed as conversion of [14C]PEA to [14C]palmitic acid after 20 mins
T2 sequence (Q5KTC7 whole entry): T1 sequence (whole entry)

[4] = molecular target: T3, Fatty-acid amide hydrolase 1 (Rattus norvegicus) (UniProt P97612); assay: Inhibition of Wistar/ST rat liver FAAH assessed as conversion of [14C]PEA to [14C]palmitic acid at 100 uM at pH 5 after 20 mins
T3 sequence (whole entry): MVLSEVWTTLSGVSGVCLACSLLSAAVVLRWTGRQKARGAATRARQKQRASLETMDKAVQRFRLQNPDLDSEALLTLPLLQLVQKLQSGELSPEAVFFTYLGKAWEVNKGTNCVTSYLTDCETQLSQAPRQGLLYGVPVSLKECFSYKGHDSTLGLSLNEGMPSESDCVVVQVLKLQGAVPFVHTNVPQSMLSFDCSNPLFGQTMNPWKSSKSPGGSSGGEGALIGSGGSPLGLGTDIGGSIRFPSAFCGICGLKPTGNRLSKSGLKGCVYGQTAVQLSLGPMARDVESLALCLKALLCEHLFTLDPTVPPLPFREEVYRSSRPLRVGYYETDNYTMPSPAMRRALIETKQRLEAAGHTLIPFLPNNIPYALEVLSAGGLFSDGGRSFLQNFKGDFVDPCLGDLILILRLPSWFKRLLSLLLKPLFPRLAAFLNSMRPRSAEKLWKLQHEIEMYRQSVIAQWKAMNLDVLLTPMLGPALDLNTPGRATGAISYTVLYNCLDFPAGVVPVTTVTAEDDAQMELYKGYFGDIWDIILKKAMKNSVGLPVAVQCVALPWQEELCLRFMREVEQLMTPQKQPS

[5] = molecular target: T3, Fatty-acid amide hydrolase 1 (Rattus norvegicus); assay: Inhibition of Wistar/ST rat liver FAAH assessed as conversion of [14C]PEA to [14C]palmitic acid at 100 uM at pH 8.5 after 20 mins
[6] = molecular target: T1, N-acylethanolamine-hydrolyzing acid amidase (Rattus norvegicus); assay: Competitive inhibition of Wistar/ST rat lung NAAA using [14C]PEA as substrate at 10 uM by Line-Weaver Burk plot analysis
[7] = molecular target: T1, N-acylethanolamine-hydrolyzing acid amidase (Rattus norvegicus); assay: Competitive inhibition of Wistar/ST rat lung NAAA using [14C]PEA as substrate at 5 uM by Line-Weaver Burk plot analysis

| SMILES | Activity [1] [%] | other results |
| --- | --- | --- |
| CCCCCCCCCCCCCC(=O)OCCN | 46 |  |
| CCCCCCCCCCCCCCCCN |  | inhibition [2]: Active |
| CCCCCCCCCCCCCCOC(=O)CN | 16 |  |
| CCCCCCCCCCCCOCCN | 40 |  |
| CCCCCCCCCCCCCCCC(=O)OCCCN | 48 |  |
| CCCCCCCCCCCCCCCCOC(=O)CN | 71 |  |
| CCCCCCCCCCCCCCOCCN | 48 |  |
| CCCCCCCCCCCC(=O)OCCCN | 63 |  |
| CCCCCCCCCCCCCC(=O)OCCCN | 46 |  |
| CCCCCCCCCCCCCCN |  | inhibition [2]: Active |
| CCCCC/C=C\C/C=C\C/C=C\C/C=C\CCCC(=O)NCC(=O)O |  | inhibition [2]: inactive |
| CCCCCCCCCCCCCOC(=O)CCN | 29 |  |
| CCCCCCCCCCCCCOC(=O)CN | 11 | IC50 [3]: 11.8 µM; inhibition [4]: 7%; inhibition [5]: inactive; inhibition [6]: Active |
| CCCCCCCCCCCCCCOCCCN | 71 |  |
| CCCCCCCCCC(=O)OCCCN | 55 |  |
| CCCCCCCCCCCCCCCC[N+](C)(C)C |  | inhibition [2]: Active |
| CCCCCCCCCCCCN |  | inhibition [2]: Active |
| CCCCCCCCCCCCOC(=O)CN | 34 |  |
| CCCCCCCCCCCC(=O)OCCN | 74 |  |
| CCCCCCCCCCCCCCCCOCCCN | 84 |  |
| CCCCCCCCCCCCCCCCOCCN | 91 |  |
| CCCCCCCCCC(=O)OCCN | 89 |  |
| CCCCCCCCCCCCCCCC(=O)OCCN | 50 |  |
| CCCCCCCCCCCCCCCC(=O)NCC(=O)O |  | inhibition [2]: inactive |
| CCCCCCCCCCCCCCCN [PENTADECYLAMINE] |  | inhibition [2]: Active; IC50 [3]: 5.7 µM; inhibition [7]: Active; inhibition [4]: 25%; inhibition [5]: inactive |
| CCCCCCCCCCCCOC(=O)CCN | 51 |  |
| CCCCCCCCCCCCCCCOC(=O)CN | 42 |  |
| CCCCCCCCCCCCOCCCN | 73 |  |
| CCCCCCCCCCCCCCOC(=O)CCN | 30 |  |
| CCCCCCCCCCCCCCCNC(=O)C1CCCCC1 |  | inhibition [2]: inactive |
